The subject of test [1] is Ab strain #303 (CDC and FDA AR Bank). Description: MIC determination. The class given is cell-based. The conditions noted are these: Acinetobacter baumannii; Ab AR Bank #303. Here is the method: (§1) All bacterial strains listed above were stored at −80° C. All strains were streaked on Mueller-Hinton (MH) plates and allowed to grow at 37° C. overnight. Enough colonies were scraped from the plate and suspended in MH broth with vortexing to reach an attenuance at 600 nm (OD600) of ˜0.5. The resulting culture was diluted 1:1000 and added to the prepared serially doubly diluted compound solutions in 96-well plates. For M. smegmatis, a 1:100 dilution of the bacteria was done in MH. All MIC values were determined using 96-well plates with low evaporation seals at least in duplicate. For each row, one well was reserved for sterile control (which consisted of 200 μL of MH medium) and another well was reserved for growth control (which consisted of 100 μL of MH medium seeded with 100 μL of bacterial culture).
(§2) Then all 46 compounds were tested against a broad panel of all 41 Ab strains from the CDC and FDA Antibiotic Resistance (AR) Isolate Bank (Table 2; data shown for 2 representative compounds), which were all highly multidrug-resistant strains, including those resistant to colistin. […] The activity of the monohydrazides was not dependent on the extent (number of resistance mutations) or severity (antibiotic MIC) of resistance. All conclusions made from Table 1 remained valid for all compounds against these 41 additional Ab strains. […] This mechanism of action will be elucidated in the proposed studies.

Test [2] has as its system Ab strain #287 (CDC and FDA AR Bank). Description: MIC determination. The class given is cell-based. The conditions noted are these: Acinetobacter baumannii; Ab AR Bank #287. Here is the method:
as §1, §2

Test [3] deals with Ab strain #282 (CDC and FDA AR Bank). Nature of the test: MIC determination. As to conditions: Acinetobacter baumannii; Ab AR Bank #282. The class given is cell-based. Here is the method: as §1, §2
Test [4] relates to Ab strain #284 (CDC and FDA AR Bank). Description: MIC determination. The class given is cell-based. The conditions noted are these: Acinetobacter baumannii; Ab AR Bank #284. How it is done:
as §1, §2

For test [5], the system named is Ab strain #293 (CDC and FDA AR Bank). Description: MIC determination. The class given is cell-based. As to conditions: Acinetobacter baumannii; Ab AR Bank #293. How it is done: as §1, §2
The test system of test [6] is Ab strain #292 (CDC and FDA AR Bank). Description: MIC determination. The class given is cell-based. The conditions noted are these: Acinetobacter baumannii; Ab AR Bank #292. Here is the method:
as §1, §2

For test [7], the system named is Ab strain #285 (CDC and FDA AR Bank). Nature of the test: MIC determination. The class given is cell-based. As to conditions: Acinetobacter baumannii; Ab AR Bank #285. How it is done: as §1, §2
The test system of test [8] is Ab strain #286 (CDC and FDA AR Bank). Nature of the test: MIC determination. The class given is cell-based. The conditions noted are these: Acinetobacter baumannii; Ab AR Bank #286. Here is the method: as §1, §2
Test [9] relates to Ab strain #288 (CDC and FDA AR Bank). Nature of the test: MIC determination. The class given is cell-based. As to conditions: Acinetobacter baumannii; Ab AR Bank #288. Here is the method:
as §1, §2

The subject of test [10] is Ab strain #312 (CDC and FDA AR Bank). Description: MIC determination. The class given is cell-based. As to conditions: Acinetobacter baumannii; Ab AR Bank #312. How it is done:
as §1, §2

The test system of test [11] is Ab strain #300 (CDC and FDA AR Bank). Nature of the test: MIC determination. The conditions noted are these: Acinetobacter baumannii; Ab AR Bank #300. The class given is cell-based. How it is done:
as §1, §2

Test [12] deals with Ab strain #281 (CDC and FDA AR Bank). Nature of the test: MIC determination. The class given is cell-based. The conditions noted are these: Acinetobacter baumannii; Ab AR Bank #281. Here is the method:
as §1, §2

Test [13] deals with Ab strain #283 (CDC and FDA AR Bank). Nature of the test: MIC determination. The class given is cell-based. As to conditions: Acinetobacter baumannii; Ab AR Bank #283. Here is the method:
as §1, §2

Test [14] concerns Ab strain #297 (CDC and FDA AR Bank). Description: MIC determination. The class given is cell-based. The conditions noted are these: Acinetobacter baumannii; Ab AR Bank #297. How it is done: as §1, §2
Test [15] has as its system Ab strain #275 (CDC and FDA AR Bank). Description: MIC determination. The class given is cell-based. The conditions noted are these: Acinetobacter baumannii; Ab AR Bank #275. How it is done: as §1, §2
Test [16] concerns Ab strain #296 (CDC and FDA AR Bank). Nature of the test: MIC determination. The class given is cell-based. The conditions noted are these: Acinetobacter baumannii; Ab AR Bank #296. How it is done:
as §1, §2

In test [17] the test system is Ab strain #308 (CDC and FDA AR Bank). Description: MIC determination. The class given is cell-based. As to conditions: Acinetobacter baumannii; Ab AR Bank #308. Here is the method:
as §1, §2

For test [18], the system named is Ab strain #307 (CDC and FDA AR Bank). Description: MIC determination. The class given is cell-based. As to conditions: Acinetobacter baumannii; Ab AR Bank #307. Here is the method:
as §1, §2

For test [19], the system named is all 43 strains of A. baumannii (41 CDC strains and 2 ATCC strains). Nature of the test: MIC value statistics for all A. baumannii strains. The class given is cell-based, Acinetobacter baumannii. As to conditions: of 43 A. baumannii strains. An outline of the steps: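 Broth microdilution in MH broth against CDC AR Isolate Bank and ATCC strains. Inoculum from overnight MH plates (37 °C), suspended to OD600 ~0.5, then diluted 1:1000 into serial twofold compound dilutions. Sterile and growth controls included per row.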

The test system of test [20] is Ab ATCC BAA1605 (strain J, multidrug-resistant). Nature of the test: MIC determination. The conditions noted are these: Acinetobacter baumannii. The class given is cell-based. An outline of the steps:
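Broth double-dilution MIC in Mueller-Hinton broth, 96-well plates, at least in duplicate. Inoculum: colonies grown overnight at 37 °C on MH plates, suspended to OD600 ~0.5 and diluted 1:1000 into serially doubly diluted compound.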

The mark [21] stands for this setting: Table 1, multidrug-resistant strain, read-out: MIC Ab ATCC BAA 1605.

≈ marks a conversion by molar mass, not a printed value. Read-outs that look alike come from different tables or passages of the source.

As usually defined, the MIC is the smallest concentration in the dilution series that meets the test's criterion for growth inhibition. On to `O=C(NNc1ccc(Cl)cc1)c1ccc(F)cn1` [Compound 3e], for which the minimum inhibitory concentration (MIC) in test [1] amounted to 0.13 µg/mL (≈ 0.489 µM); in test [2], 0.13 µg/mL (≈ 0.489 µM); in test [3], 0.25 µg/mL (≈ 0.941 µM); in test [4], 0.25 µg/mL (≈ 0.941 µM); in test [5], 0.13 µg/mL (≈ 0.489 µM); in test [6] it was 0.25 µg/mL (≈ 0.941 µM). Besides, the minimum inhibitory concentration (MIC) is 0.13 µg/mL (≈ 0.489 µM) in [7]; 0.06 µg/mL (≈ 0.226 µM) in test [8]; 0.25 µg/mL (≈ 0.941 µM) in [9]; 0.5 µg/mL (≈ 1.88 µM) in [10]; 0.25 µg/mL (≈ 0.941 µM) in test [11]; 0.5 µg/mL (≈ 1.88 µM) in test [12]. In addition, the minimal inhibitory concentration (MIC) in [13] is 0.5 µg/mL (≈ 1.88 µM); in test [14], 0.25 µg/mL (≈ 0.941 µM); in [15], 0.25 µg/mL (≈ 0.941 µM); in test [16] it was 0.06 µg/mL (≈ 0.226 µM); in test [17], 0.13 µg/mL (≈ 0.489 µM); in [18], 0.5 µg/mL (≈ 1.88 µM). Moreover, the MIC was 0.0625 µg/mL (≈ 0.235 µM) in test [20] (setting [21]) and not above 0.125 µg/mL in test [20] (Table 5, Mueller-Hinton medium, J = A. baumannii BAA1605, read-out: MIC strain J). In test [19], the “number of compound/strain combinations with MIC value 0.25 μg/mL” value is given as 16. The “number of compound/strain combinations with MIC value 0.5 μg/mL” value in test [19] turned out to be 10. The “number of compound/strain combinations with MIC value 1 μg/mL” value in test [19] is 1. Moreover, the “number of compound/strain combinations with MIC value ≤0.125 μg/mL” value in test [19] was 16.

On to `O=C(NNc1cccc(F)c1)c1cnccn1` [Compound 9a], for which the MIC in test [1] came out at 0.25 µg/mL (≈ 1.08 µM); in [2] it was 0.5 µg/mL (≈ 2.15 µM); in [3] it was 1 µg/mL (≈ 4.31 µM); in test [4] it was 0.5 µg/mL (≈ 2.15 µM); in test [5], 0.25 µg/mL (≈ 1.08 µM); in [6], 0.25 µg/mL (≈ 1.08 µM). The minimum inhibitory concentration (MIC) in test [7] was 0.5 µg/mL (≈ 2.15 µM); in test [8], 1 µg/mL (≈ 4.31 µM); in [9], 1 µg/mL (≈ 4.31 µM); in [10] it was 0.5 µg/mL (≈ 2.15 µM); in test [11], 0.25 µg/mL (≈ 1.08 µM); in test [12] it was 0.5 µg/mL (≈ 2.15 µM). Besides, the MIC in test [13] is 0.25 µg/mL (≈ 1.08 µM); in test [14], 0.5 µg/mL (≈ 2.15 µM); in test [15], 0.5 µg/mL (≈ 2.15 µM); in test [16], not above 0.13 µg/mL; in [17], 0.25 µg/mL (≈ 1.08 µM); in test [18], 0.5 µg/mL (≈ 2.15 µM). In [20] (setting [21]), the minimal inhibitory concentration (MIC) was 0.5 µg/mL (≈ 2.15 µM). The “number of compound/strain combinations with MIC value 0.25 μg/mL” value in test [19] was 11. In addition, in [19], the “number of compound/strain combinations with MIC value 0.5 μg/mL” value turned out to be 18. Further, the “number of compound/strain combinations with MIC value 1 μg/mL” value in [19] came out at 10. The “number of compound/strain combinations with MIC value ≤0.125 μg/mL” value in [19] is 4.

The record behind these values is patent US20260041683A1, “Compounds with Anti-Acinetobacter Baumannii Activity” (University of Kentucky Research Foundation, priority 2022, published 2026).
